Earlier results on 3 compounds are cited in paper PMC10289985, “Brigatinib pharmacokinetics in patients with chronic hepatic impairment” (Investigational New Drugs, 2023).

Like-named read-outs stand apart in the source and are kept apart here.

On the set-up of data set [1]: method as in ref 26 = [26]; 26. Zykadia [package insert] (2021) Novartis Pharmaceuticals Corporation, East Hanover, NJ. The settings on record: cited from earlier work.
Details of data set [2]: method as in PMID 29468455. Particulars: patients with moderate or severe hepatic impairment; cited from earlier work.
On the set-up of data set [3]: method as in PMID 30052269. Particulars: cited from earlier work.

As to `Cc1cc(Nc2ncc(Cl)c(Nc3ccccc3S(=O)(=O)C(C)C)n2)c(OC(C)C)cc1C1CCNCC1` [ceritinib], the “systemic exposures compared with healthy participants” value in data set [1] (mild and moderate hepatic impairment) is “similar”. Besides, the “increase of unbound systemic exposure (AUC)” value in data set [1] (severe hepatic impairment) is 108%.

Regarding `C[C@@H](Oc1cc(-c2cnn(C3CCNCC3)c2)cnc1N)c1c(Cl)ccc(F)c1Cl` [crizotinib], the “change of concentrations in hepatic impairment” value in data set [2] was “increased”.

For the compound `CCc1cc2c(cc1N1CCC(N3CCOCC3)CC1)C(C)(C)c1[nH]c3cc(C#N)ccc3c1C2=O` [alectinib], the “increase of combined systemic exposures (AUC) of alectinib and its M4 metabolite” value is on record as 36% in data set [3] (moderate hepatic impairment vs matched healthy participants) and 76% in data set [3] (severe hepatic impairment vs matched healthy participants).
